A word on the IC50: it is the midpoint of a concentration-inhibition curve.

Test [1] has as its target Mitogen-activated protein kinase kinase kinase kinase 4 (Homo sapiens, UniProt O95819). As to the kind of experiment: Selectivity interaction (Ambit KINOMEscan and KiNATiv profiling in Jurkat cells) EUB0000090b MAP4K4. Conditions: at 1 µM. Type of test: cell-based.
The target in test [2] is Calcium/calmodulin-dependent protein kinase type 1D (Homo sapiens) (UniProt Q8IU85). Conditions: at 10 µM.
Test [3] addresses Cyclin-dependent kinase 5 (Homo sapiens, UniProt Q00535). As to the kind of experiment: Selectivity interaction (KinomeScan (DiscoverX)) EUB0001079a CDK5. To be noted: at 1 µM.
The target of test [4] is Ribosomal protein S6 kinase alpha-1 (Homo sapiens, UniProt Q15418). Kind of test: Selectivity interaction (KinomeScan (DiscoverX)) EUB0000655a RPS6KA1. Conditions: at 10 µM.
Test [5] addresses Casein kinase I isoform epsilon (Homo sapiens, UniProt P49674). As to the kind of experiment: Selectivity interaction (KinomeScan (DiscoverX)) EUB0000666a CSNK1E. Conditions: at 10 µM.
The target of test [6] is Calcium/calmodulin-dependent protein kinase type 1D (Homo sapiens) (UniProt Q8IU85). Kind of test: Selectivity interaction (SelectScreen profiling (Invitrogen)) EUB0000607a CAMK1D. Conditions: at 2 µM.
The target of test [7] is T1, Phosphatidylinositol 5-phosphate 4-kinase type-2 alpha (Homo sapiens) (UniProt P48426).
T1 sequence (whole entry): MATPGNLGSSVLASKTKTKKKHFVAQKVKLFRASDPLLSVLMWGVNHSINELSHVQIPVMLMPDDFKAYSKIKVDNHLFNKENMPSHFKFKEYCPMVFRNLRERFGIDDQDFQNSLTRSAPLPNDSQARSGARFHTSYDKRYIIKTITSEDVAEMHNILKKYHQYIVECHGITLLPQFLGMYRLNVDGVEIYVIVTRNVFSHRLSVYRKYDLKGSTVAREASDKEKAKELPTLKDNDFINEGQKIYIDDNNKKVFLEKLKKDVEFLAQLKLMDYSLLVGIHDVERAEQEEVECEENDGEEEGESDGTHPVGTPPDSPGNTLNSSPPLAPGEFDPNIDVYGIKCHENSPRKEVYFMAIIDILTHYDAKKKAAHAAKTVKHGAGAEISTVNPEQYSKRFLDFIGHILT
As to the kind of experiment: Selectivity interaction (ActivX KiNativ screen (kinase selectivity in THP-1 cell lysates)) EUB0000639a PIP4K2A. To be noted: lysate. Type of test: subcellular.

Test [8] deals with Serine/threonine-protein kinase Chk2 (Homo sapiens) (UniProt O96017). As to the kind of experiment: Selectivity interaction (ActivX KiNativ screen (kinase selectivity in THP-1 cell lysates)) EUB0000639a CHEK2. Type of test: subcellular. To be noted: lysate.
Test [9] deals with T2, Phosphatidylinositol 5-phosphate 4-kinase type-2 gamma (Homo sapiens) (UniProt Q8TBX8).
T2 sequence (whole entry): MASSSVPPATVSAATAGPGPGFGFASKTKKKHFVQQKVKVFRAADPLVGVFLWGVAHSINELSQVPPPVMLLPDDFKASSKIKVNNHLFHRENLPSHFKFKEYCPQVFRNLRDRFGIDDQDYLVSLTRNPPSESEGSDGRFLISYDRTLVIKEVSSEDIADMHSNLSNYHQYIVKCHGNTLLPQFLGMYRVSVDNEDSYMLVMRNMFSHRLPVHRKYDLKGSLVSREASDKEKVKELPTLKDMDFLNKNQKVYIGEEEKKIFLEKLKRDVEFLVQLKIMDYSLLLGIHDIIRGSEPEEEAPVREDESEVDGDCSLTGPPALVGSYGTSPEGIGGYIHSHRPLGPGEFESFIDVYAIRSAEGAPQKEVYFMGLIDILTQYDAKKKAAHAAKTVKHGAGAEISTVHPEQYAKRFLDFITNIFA
As to the kind of experiment: Selectivity interaction (ActivX KiNativ screen (kinase selectivity in THP-1 cell lysates)) EUB0000639a PIP4K2C. To be noted: lysate, at 1 µM. Type of test: subcellular.

For test [10], the target named is Protein kinase C delta type (Homo sapiens) (UniProt Q05655). As to the kind of experiment: Selectivity interaction (ActivX KiNativ screen (kinase selectivity in THP-1 cell lysates)) EUB0000639a PRKCD. Type of test: subcellular. To be noted: lysate.
In test [11] the target is Dual specificity protein kinase CLK4 (Homo sapiens, UniProt Q9HAZ1). As to the kind of experiment: Selectivity interaction (Kinase panel (Invitrogen)) EUB0000639a CLK4. To be noted: at 200 nM.
For test [12], the target named is Kappa-type opioid receptor (Homo sapiens, UniProt P41145). Kind of test: Selectivity interaction (Opiate Kappa receptor assay, human recombinant ) EUB0000877a OPRK1.
In a further test the target is B2 bradykinin receptor (Homo sapiens, UniProt P30411). Kind of test: Selectivity interaction (Bradykinin 2 receptor binding assay, human recombinant ) EUB0000877a BDKRB2.
The target in test [13] is Cyclin-dependent kinase-like 3 (Homo sapiens) (UniProt Q8IVW4). As to the kind of experiment: Selectivity interaction (KinomeScan (DiscoverX)) EUB0000595a CDKL3. To be noted: at 10 µM.
Test [14] concerns the target Tyrosine-protein kinase receptor UFO (Homo sapiens) (UniProt P30530). Kind of test: Selectivity interaction (KinomeScan (DiscoverX)) EUB0001619a AXL. To be noted: at 1 µM.
For test [15], the target named is T3, Cyclin-dependent kinase 11A (Homo sapiens) (UniProt Q9UQ88).
T3 sequence (whole entry): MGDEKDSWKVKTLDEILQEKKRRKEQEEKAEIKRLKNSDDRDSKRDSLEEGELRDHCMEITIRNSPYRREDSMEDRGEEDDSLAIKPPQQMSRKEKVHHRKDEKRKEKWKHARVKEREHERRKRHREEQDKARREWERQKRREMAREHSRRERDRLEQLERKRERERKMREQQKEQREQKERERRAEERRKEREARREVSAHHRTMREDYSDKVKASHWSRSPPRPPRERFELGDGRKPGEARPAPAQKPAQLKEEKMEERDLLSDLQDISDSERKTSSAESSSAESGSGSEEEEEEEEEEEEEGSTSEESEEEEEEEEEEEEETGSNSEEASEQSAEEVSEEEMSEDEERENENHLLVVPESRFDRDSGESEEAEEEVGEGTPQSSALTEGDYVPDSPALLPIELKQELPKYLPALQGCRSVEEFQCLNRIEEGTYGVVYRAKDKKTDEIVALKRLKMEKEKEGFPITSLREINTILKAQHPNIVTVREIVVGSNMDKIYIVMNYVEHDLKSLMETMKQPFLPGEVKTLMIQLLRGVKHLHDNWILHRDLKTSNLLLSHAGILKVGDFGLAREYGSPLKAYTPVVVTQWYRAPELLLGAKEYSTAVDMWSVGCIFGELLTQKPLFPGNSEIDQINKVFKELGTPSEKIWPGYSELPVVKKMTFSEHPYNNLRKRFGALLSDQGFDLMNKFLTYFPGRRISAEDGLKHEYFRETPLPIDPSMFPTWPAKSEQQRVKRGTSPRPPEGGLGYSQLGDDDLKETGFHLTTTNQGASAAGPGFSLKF
Kind of test: Selectivity interaction (KinomeScan (DiscoverX)) EUB0000618a CDK11A. To be noted: at 10 µM.

SMILES strings stand for the structures. A value given as a limit tells only on which side of the number the result lay.

Sequence of Serine/threonine-protein kinase Chk2 (Homo sapiens) (O96017 whole entry): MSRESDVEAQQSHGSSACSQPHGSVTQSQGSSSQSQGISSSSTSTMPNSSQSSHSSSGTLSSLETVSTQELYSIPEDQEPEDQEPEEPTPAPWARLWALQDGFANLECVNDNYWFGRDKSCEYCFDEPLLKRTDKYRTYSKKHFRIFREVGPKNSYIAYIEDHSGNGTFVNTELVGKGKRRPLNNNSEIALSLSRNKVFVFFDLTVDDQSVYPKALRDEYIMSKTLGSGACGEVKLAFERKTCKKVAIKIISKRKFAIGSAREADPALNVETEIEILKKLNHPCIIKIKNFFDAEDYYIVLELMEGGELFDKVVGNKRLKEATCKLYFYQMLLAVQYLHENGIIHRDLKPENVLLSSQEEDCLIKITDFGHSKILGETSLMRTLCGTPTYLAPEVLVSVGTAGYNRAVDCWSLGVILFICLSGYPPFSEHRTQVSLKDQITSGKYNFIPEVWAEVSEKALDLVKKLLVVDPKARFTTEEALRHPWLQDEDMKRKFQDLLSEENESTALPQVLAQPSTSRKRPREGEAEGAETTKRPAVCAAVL
Sequence of Protein kinase C delta type (Homo sapiens) (Q05655 whole entry, looked up): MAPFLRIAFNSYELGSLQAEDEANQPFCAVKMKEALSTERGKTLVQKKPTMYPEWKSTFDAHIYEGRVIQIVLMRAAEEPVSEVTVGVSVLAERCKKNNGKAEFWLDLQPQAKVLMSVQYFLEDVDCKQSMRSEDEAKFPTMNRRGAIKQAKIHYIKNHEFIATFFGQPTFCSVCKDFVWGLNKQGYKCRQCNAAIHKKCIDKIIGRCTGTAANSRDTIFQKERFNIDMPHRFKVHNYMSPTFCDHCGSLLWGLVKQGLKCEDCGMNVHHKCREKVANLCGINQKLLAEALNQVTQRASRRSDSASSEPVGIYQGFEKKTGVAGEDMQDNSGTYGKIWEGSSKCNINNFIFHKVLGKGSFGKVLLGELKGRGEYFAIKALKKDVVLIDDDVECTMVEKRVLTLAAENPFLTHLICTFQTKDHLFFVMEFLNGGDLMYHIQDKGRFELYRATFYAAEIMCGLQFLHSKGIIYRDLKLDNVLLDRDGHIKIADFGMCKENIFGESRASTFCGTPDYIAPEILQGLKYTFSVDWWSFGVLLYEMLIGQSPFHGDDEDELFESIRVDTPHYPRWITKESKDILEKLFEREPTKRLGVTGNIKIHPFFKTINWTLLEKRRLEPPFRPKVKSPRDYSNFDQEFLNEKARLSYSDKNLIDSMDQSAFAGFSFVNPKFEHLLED
Sequence of Calcium/calmodulin-dependent protein kinase type 1D (Homo sapiens) (Q8IU85 whole entry, looked up): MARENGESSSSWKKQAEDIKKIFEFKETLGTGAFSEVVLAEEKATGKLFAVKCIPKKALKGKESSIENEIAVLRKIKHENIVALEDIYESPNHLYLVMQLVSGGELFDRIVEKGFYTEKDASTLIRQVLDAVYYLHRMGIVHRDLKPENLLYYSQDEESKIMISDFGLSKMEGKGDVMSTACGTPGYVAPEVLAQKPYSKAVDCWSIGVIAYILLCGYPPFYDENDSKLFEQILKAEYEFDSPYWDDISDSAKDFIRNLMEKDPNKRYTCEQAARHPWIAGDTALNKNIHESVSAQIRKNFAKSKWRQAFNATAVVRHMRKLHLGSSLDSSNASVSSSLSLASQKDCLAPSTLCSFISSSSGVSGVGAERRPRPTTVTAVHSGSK
Sequence of Dual specificity protein kinase CLK4 (Q9HAZ1 whole entry, looked up): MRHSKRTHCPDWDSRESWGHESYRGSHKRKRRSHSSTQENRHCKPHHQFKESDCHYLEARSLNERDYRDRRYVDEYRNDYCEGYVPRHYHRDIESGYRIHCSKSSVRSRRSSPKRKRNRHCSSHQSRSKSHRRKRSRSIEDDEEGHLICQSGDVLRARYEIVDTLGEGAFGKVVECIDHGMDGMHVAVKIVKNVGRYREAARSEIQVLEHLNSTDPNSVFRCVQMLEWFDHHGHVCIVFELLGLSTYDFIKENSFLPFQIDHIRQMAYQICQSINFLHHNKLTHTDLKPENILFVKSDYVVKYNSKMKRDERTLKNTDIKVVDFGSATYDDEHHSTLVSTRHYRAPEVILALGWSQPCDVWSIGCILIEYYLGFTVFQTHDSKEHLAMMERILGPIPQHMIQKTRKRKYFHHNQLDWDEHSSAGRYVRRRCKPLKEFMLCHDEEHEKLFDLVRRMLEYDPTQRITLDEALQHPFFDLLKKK
Sequence of Kappa-type opioid receptor (P41145 whole entry): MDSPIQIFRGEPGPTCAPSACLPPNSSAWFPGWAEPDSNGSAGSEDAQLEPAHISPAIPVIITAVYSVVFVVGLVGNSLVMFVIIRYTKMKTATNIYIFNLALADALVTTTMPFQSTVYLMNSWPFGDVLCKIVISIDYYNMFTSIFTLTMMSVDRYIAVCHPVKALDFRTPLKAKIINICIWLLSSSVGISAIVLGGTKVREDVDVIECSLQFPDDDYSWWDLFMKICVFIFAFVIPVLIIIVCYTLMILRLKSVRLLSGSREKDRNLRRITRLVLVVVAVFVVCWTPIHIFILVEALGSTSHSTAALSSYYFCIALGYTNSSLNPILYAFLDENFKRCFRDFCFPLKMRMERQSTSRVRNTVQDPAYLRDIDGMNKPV
Sequence of B2 bradykinin receptor (P30411 whole entry): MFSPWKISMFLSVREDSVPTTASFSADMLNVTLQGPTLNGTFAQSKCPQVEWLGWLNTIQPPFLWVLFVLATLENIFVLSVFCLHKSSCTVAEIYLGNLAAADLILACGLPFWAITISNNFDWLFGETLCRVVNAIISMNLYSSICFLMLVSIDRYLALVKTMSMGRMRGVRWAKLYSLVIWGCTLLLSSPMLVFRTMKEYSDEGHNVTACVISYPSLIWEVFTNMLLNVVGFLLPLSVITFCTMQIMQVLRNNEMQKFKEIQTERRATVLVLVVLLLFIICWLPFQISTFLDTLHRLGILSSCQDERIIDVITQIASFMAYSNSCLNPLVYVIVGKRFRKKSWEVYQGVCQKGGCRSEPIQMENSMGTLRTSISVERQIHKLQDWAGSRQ
Sequence of Cyclin-dependent kinase 5 (Q00535 whole entry, looked up): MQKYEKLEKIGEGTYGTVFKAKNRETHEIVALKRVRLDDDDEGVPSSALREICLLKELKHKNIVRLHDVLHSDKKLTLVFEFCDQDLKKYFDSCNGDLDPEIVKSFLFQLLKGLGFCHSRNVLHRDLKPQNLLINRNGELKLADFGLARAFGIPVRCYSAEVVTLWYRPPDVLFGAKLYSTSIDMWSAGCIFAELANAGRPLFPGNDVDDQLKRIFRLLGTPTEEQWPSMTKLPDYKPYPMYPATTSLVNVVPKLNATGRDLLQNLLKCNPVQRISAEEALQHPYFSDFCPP
Sequence of Ribosomal protein S6 kinase alpha-1 (Q15418 whole entry, canonical isoform): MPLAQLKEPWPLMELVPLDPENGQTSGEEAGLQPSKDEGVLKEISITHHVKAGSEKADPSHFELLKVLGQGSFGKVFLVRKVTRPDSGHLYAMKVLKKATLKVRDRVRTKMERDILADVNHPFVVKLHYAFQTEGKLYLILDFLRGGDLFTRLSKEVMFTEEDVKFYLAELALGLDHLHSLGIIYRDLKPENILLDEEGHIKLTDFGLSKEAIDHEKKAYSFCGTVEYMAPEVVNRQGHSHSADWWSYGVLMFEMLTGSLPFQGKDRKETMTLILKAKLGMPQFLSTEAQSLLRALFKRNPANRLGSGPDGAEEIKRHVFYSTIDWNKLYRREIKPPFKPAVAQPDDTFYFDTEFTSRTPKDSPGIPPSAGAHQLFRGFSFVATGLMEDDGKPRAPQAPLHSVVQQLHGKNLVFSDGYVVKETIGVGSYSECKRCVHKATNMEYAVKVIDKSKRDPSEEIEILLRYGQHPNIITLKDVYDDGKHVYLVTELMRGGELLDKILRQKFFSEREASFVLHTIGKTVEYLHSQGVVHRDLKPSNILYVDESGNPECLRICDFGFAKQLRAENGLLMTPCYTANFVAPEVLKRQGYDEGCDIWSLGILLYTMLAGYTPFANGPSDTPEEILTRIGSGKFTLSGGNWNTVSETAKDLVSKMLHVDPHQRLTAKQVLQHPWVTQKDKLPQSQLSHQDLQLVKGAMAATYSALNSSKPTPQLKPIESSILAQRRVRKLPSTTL
Sequence of Tyrosine-protein kinase receptor UFO (Homo sapiens) (P30530 whole entry): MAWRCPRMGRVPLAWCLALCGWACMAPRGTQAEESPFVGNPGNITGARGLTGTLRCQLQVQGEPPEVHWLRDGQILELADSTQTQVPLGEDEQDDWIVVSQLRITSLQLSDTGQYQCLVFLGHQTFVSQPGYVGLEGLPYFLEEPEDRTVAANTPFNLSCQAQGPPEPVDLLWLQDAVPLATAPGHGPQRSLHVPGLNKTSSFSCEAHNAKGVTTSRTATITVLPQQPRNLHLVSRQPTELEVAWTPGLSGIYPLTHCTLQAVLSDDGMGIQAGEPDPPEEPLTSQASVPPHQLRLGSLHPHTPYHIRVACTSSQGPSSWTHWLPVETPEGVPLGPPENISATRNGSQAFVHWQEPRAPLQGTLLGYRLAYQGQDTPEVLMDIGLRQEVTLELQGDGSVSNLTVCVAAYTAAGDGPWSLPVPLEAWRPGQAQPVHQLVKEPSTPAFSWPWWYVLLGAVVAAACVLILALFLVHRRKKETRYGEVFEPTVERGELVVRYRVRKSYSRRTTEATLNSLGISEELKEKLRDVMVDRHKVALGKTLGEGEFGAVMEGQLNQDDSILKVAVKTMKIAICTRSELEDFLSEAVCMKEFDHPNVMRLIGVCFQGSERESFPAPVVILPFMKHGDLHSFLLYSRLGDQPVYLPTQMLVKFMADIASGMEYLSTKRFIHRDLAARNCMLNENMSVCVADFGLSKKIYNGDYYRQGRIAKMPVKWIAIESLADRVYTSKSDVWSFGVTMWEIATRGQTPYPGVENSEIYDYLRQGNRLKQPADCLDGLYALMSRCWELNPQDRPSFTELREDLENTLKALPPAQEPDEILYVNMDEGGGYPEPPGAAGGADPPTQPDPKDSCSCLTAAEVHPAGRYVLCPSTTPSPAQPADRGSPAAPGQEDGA

For `CN(C)C/C=C/C(=O)Nc1ccc(C(=O)N2CCCC(Nc3ncc(Cl)c(-c4c[nH]c5ccccc45)n3)C2)cc1` (stereo not drawn), in test [1], the % of control is 78%.

In the case of `CCN(CC)CCCCNc1ncc2cc(-c3cc(OC)cc(OC)c3)c(NC(=O)NC(C)(C)C)nc2n1`, the % of control in test [2] is 100%.

Regarding `Nc1cnc(N2CCc3cc(S(=O)(=O)Nc4c(F)cc(Cl)cc4F)cc(N4CCCC4=O)c32)nc1` [TP-020n], in [3], the % of control is 100%.

The molecule `CN(C)CCOc1ccc(-c2nc(-c3ccncc3)c(-c3ccc4c(c3)CC/C4=N\O)[nH]2)cc1` displayed a % of control in test [4] of 81%.

`O=C(NOC[C@H](O)CO)c1ccc(F)c(F)c1Nc1ccc(I)cc1F` came in with a % of control in test [5] of 100%.

On to `CNC(=O)Nc1ccc(-c2nc(N3CC4CCC(C3)O4)c3cnn(C4CCC5(CC4)OCCO5)c3n2)cc1`, for which the % of inhibition in test [6] stood at 0%.

`CC[C@@H]1[C@H](F)C(=O)N[C@@H]1COc1nccc2cc(C(N)=O)c(OC)cc12` [ZIMLOVISERTIB]: the % of inhibition in test [7] (at 0.01 µM) was -3.1%; in test [7] (at 0.04 µM), 1.9%; in test [7] (at 0.2 µM) it was -7.7%; in test [7] (at 1 µM), -0.6%; in test [7] (at 5 µM), -9%; in [8] (at 0.01 µM), 4.5%. Moreover, the % of inhibition in test [8] (at 0.04 µM) was 8.5%; in [8] (at 0.2 µM), 3.8%; in test [8] (at 1 µM), 30.1%; in test [8] (at 5 µM), 58.9%; in test [9], 76.4%; in [10] (at 0.01 µM), -1%. The % of inhibition in test [10] (at 0.04 µM) is -2%; in [10] (at 0.2 µM), 1.3%; in test [10] (at 1 µM) it was 7.2%; in test [10] (at 5 µM) it was -13.1%; in [11], 75.7%.

Turning to `CCC(=O)N1CC[C@H](Nc2ncnc3c2CN(c2cnc(OC)c(C(F)(F)F)c2)CC3)C1` [LENIOLISIB], the IC50 (in test [12]; on B2 bradykinin receptor) was above 30 µM in each case.

`COCC(=O)NC/C=C/c1ccc2ncnc(Nc3ccc(Oc4ccc(C)nc4)c(C)c3)c2c1` [CP-724714] showed a % of control in test [13] of 100%.

The molecule `N#Cc1cccc(-c2c[nH]c3ncnc(N4CCOCC4)c23)c1` came in with a % of control in test [14] of 99%.

As to `O[C@H]1CC[C@H](Nc2ncc3nc(Nc4c(F)cc(F)cc4F)n([C@H]4CCOC4)c3n2)CC1`, the % of control in [15] turned out to be 98%.
